Reference: US20080064722A1, “AGENT FOR PROMOTING INTERFERON-Y PRODUCTION” (KABUSHIKI KAISHA HAYAHIBARA SEIBUTSU KAGAKU KENKYU, priority 2001, published 2008)

Experiments:
[1] = tested on: IFN-γ production by immunocompetent cells (spleen cells); test: Effect of cyanine dye on IFN-γ production (ex vivo: oral dosing of mice, spleen cells cultured with lipopolysaccharide, ELISA); format: in vivo, BALB/c female mice; conditions: for IFN-γ Production: once a day over three days, spleen cells 1×10^6 cells/ml, 5 μg/ml lipopolysaccharide, 72 hours
Protocol: The following explains the effect of the cyanine dyes on INF-γ production by immunocompetent cells based on ex vivo experiment using mice as an experimental animal.
(§1) Twenty-five of 10-week-old BALB/c female mice were divided into five groups. A powder consisting of one part by weight of “NK-4”, a cyanine dye represented by Chemical Formula 1 produced by Hayashibara Biochemical Laboratories, Inc., Okayama, Japan, and 200 parts by weight of sodium bicarbonate was prepared. Then, the mixture was dissolved in physiological saline to give a concentration of 20 mg/ml. Successively, the solution was diluted to give different concentrations as indicated in Table 1 with 20 mg/ml of sodium bicarbonate aqueous solution for administration to the mice. The dilutions were orally administered to the mice in four groups once a day over three days.
Spleens were respectively extracted from the mice in each group, minced and suspended in a usual manner in the art to give the spleen cell suspension. The cell suspensions were collected and diluted in RPMI medium (pH 7.2), supplemented with 10% (v/v) calf serum […] and containing 10 mM HEPES (N-2-hydroxyethylpiperadine-N′-2-ethanesulfonic acid) and 5 μg/ml lipopolysaccharide, to give a concentration of 1×10^6 cells/ml, and were cultured at 37° C. for 72 hours. IFN-γ was measured by conventional enzyme-linked immunosorbent assay (ELISA). As a control, the mice of the group with no cyanine dye were treated similarly as above. The measured values of IFN-γ were converted into international units (IU) with reference to the standard mouse IFN-γ (Gg02-901-533) obtained form National institute of Health, U.S.A., as an IFN-γ standard.

[2] = tested on: mice; test: Observation of the mice administered with the cyanine dye (death, condition, side effects); format: in vivo
Protocol: as §1

[3] = LD50 of the cyanine dye; format: in vivo

| Structure (SMILES) | IFN-γ Production ([1]; dose 1 μg/kg body weight) [IU/ml] | IFN-γ Production ([1]; dose 10 μg/kg body weight) [IU/ml] | IFN-γ Production ([1]; dose 100 μg/kg body weight) [IU/ml] | IFN-γ production relative to that of the control group ([1]; dose 1,000 μg/kg body weight, control 0.4 IU/ml) | IFN-γ Production ([1]; dose 1,000 μg/kg body weight) [IU/ml] | Serious side effect such as symptom of poisoning ([2]; directly applied to living bodies) | Condition of mice (hair complexion, appetite, motility) ([2]; mouse, in vivo, po) | Death of mice ([2]; oral, 1 to 1,000 μg/kg body weight, once a day over three days) | LD50 ([3]; intraperitoneal administration) [mg/kg body weight] | LD50 ([3]; oral administration) [g/kg body weight] |
| --- | --- | --- | --- | --- | --- | --- | --- | --- | --- | --- |
| CCN1C=CC(=CC=C(C=Cc2cc[n+](CC)c3ccccc23)c2cc[n+](CC)c3ccccc23)c2ccccc21 [NK-4] | 1.2 | 2.2 | 2.3 | sevenfold | 2.8 | did not cause any serious side effect | good conditions of hair complexion, appetite, and motility | did not die |  |  |
| CCCCCCCN1C(C)=CS\C1=C/C=C(/C=C/c1scc(C)[n+]1CCCCCCC)c1scc(C)[n+]1CCCCCCC [Chemical Formula 2] |  |  |  |  |  |  |  |  | 54 | 1.5 |
